“Also recorded” adds a separate entry of the source.

These results are taken from patent US6660496B1 (priority 1993, dated 2003).

One data set has as its system kappa3 opioid receptor. The experiment in a line: Effect of antisense treatment on kappa3 analgesic activity (tailflick assay). It is filed as in vivo. Conditions: mice, 5 μg oligodeoxynucleotide intracerebroventricular on days 1, 3 and 5, quantal tailflick 15 min after drug; for Effect on analgesic response to NalBzoH: NalBzoH 15 μg on day 6; for Effect on analgesic response to morphine: morphine 1 μg on day 6.

In a further data set the test system is kappa3 receptors. Conditions: cited from earlier work.

Take “sense strand: complementary sense strand to the antisense oligodeoxynucleotide (5′-CCCGACACGTCTTCGC-GTCT-3′) (SEQ ID NO:4) (sense CCCGACACGTCTTCGCGTCT; DNA, backbone and methylation of C not given here)”: the “Effect on analgesic response to NalBzoH” value in the data set on kappa3 opioid receptor is “lack of activity”; with kappa3 opioid receptor (listed as sense), “unaffected”.
With “mismatched antisense: mismatched antisense in which two base pairs had been switched (5′-GGGTCGTGCAGAGACGCAGA-3′) (SEQ ID NO:5) (DNA, backbone and methylation of C not given here)”, the “Effect on analgesic response to NalBzoH” value with kappa3 opioid receptor is recorded as “unaffected”; in the data set with kappa3 opioid receptor (listed as mismatched antisense probe), “lack of activity”.
For “antisense: anti-sense to the kappa3 clone (5′-GGGCTGTGCAGAAGCGCAGA-3′)(SEQ ID NO:3) (DNA, backbone and methylation of C not given here)”, in the data set on kappa3 opioid receptor, the “Effect on analgesic response to NalBzoH” value is reported as “markedly lowered; also recorded: markedly reduced” and the “Effect on analgesic response to morphine” value is listed as “without interfering”. Also, in the data set on kappa3 opioid receptor (listed as anti-sense), the “Effect on analgesic response to morphine” value is recorded as “unaffected”.
As to `Oc1ccc2c3c1O[C@H]1c4[nH]c5c(c4C[C@@]4(O)[C@@H](C2)N(CC2CC2)CC[C@]314)C[C@@]1(O)[C@H]2Cc3ccc(O)c4c3[C@@]1(CCN2CC1CC1)[C@H]5O4` [nor-binaltorphimine], in the data set with kappa3 receptors, the “Binding to kappa3 receptors” value is listed as “do not bind U50,488H or nor-binaltorphimine very well”.
